These results are taken from patent US20170326125A1, “MULTISUBSTITUTED AROMATIC COMPOUNDS AS INHIBITORS OF THROMBIN” (VERSEON CORPORATION, priority 2016, published 2017).

By pIC50 is commonly meant the IC50 on a negative log10 scale, so that one unit is a factor of ten. Read a low pIC50 as a high IC50.

pIC50: −log10 of the molar value. Bounds are passed on as bounds.

The first assay has as its target T1, Human thrombin (Homo sapiens, UniProt P00734).
T1 construct: purchased Haematologic Technologies Inc
Briefly: Inhibition of the protease activity of thrombin (chromogenic substrate S-2238). The assay is classed as biochemical. The note with it: Table C; 3 nM thrombin, 125 μM S-2238, 10 min pre-incubation, RT.
In the case of `COc1ccccc1CNc1nc(-c2cccnc2)nn1C(=O)C(C)C` [Cmpd 305, 1-(5-[(2-methoxyphenyl)methyl]amino-3-(pyridin-3-yl)-1H-1,2,4-triazol-1-yl)-2-methylpropan-1-one], the negative logarithm of the IC50 (pIC50) is under 6.00.
`CC(C)C(=O)n1nc(-c2cccnc2)nc1NCc1ccc(Cl)cc1` [Cmpd 306, 1-(5-[(4-chlorophenyl)methyl]amino-3-(pyridin-3-yl)-1H-1,2,4-triazol-1-yl)-2-methylpropan-1-one] showed a negative-log IC50 (pIC50) of over 7.00.
The same measure, in the same setting: in the case of `CC(=O)n1nc(-c2cccnc2)nc1NCc1ccc(Cl)cc1` [Cmpd 307, 1-(5-[(4-chlorophenyl)methyl]amino-3-(pyridin-3-yl)-1H-1,2,4-triazol-1-yl)ethan-1-one] it was over 7.00; in that of `CCC(=O)n1nc(-c2cccnc2)nc1NCc1ccc(Cl)cc1` [Cmpd 308, 1-(5-[(4-chlorophenyl)methyl]amino-3-(pyridin-3-yl)-1H-1,2,4-triazol-1-yl)propan-1-one], over 7.00; in that of `CC(C)(C)C(=O)n1nc(-c2ccco2)nc1NCc1ccc(F)cc1` [Cmpd 309, 1-(5-[(4-fluorophenyl)methyl]amino-3-(furan-2-yl)-1H-1,2,4-triazol-1-yl)-2,2-dimethylpropan-1-one], over 7.00.
On to `CC(C)C(=O)n1nc(-c2ccco2)nc1NCc1ccc(F)cc1` [Cmpd 310, 1-(5-[(4-fluorophenyl)methyl]amino-3-(furan-2-yl)-1H-1,2,4-triazol-1-yl)-2-methylpropan-1-one], for which the pIC50 was over 7.00.
With `COCC(=O)n1nc(-c2cccnc2)nc1NCc1ccc(F)cc1` [Cmpd 311, 1-(5-[(4-fluorophenyl)methyl]amino-3-(pyridin-3-yl)-1H-1,2,4-triazol-1-yl)-2-methoxyethan-1-one], the negative logarithm of the IC50 (pIC50) is under 6.00.
On to `CC(C)C(=O)n1nc(-c2cccnc2)nc1NCc1ccc(F)cc1` [Cmpd 312, 1-(5-[(4-fluorophenyl)methyl]amino-3-(pyridin-3-yl)-1H-1,2,4-triazol-1-yl)-2-methylpropan-1-one], for which the negative logarithm of the IC50 (pIC50) was over 7.00.
Still for that read-out and setting: the figure for `O=C(Cc1ccccc1)n1nc(-c2cccnc2)nc1NCc1ccc(F)cc1` [Cmpd 313, 1-(5-[(4-fluorophenyl)methyl]amino-3-(pyridin-3-yl)-1H-1,2,4-triazol-1-yl)-2-phenylethan-1-one] is over 7.00; for `CC(C)CC(=O)n1nc(-c2cccnc2)nc1NCc1ccc(F)cc1` [Cmpd 314, 1-(5-[(4-fluorophenyl)methyl]amino-3-(pyridin-3-yl)-1H-1,2,4-triazol-1-yl)-3-methylbutan-1-one] it is over 7.00; for `O=C(CCc1ccccc1)n1nc(-c2cccnc2)nc1NCc1ccc(F)cc1` [Cmpd 315, 1-(5-[(4-fluorophenyl)methyl]amino-3-(pyridin-3-yl)-1H-1,2,4-triazol-1-yl)-3-phenylpropan-1-one] it is over 7.00.
In the case of `CCCC(=O)n1nc(-c2cccnc2)nc1NCc1ccc(F)cc1` [Cmpd 316, 1-(5-[(4-fluorophenyl)methyl]amino-3-(pyridin-3-yl)-1H-1,2,4-triazol-1-yl)butan-1-one], the pIC50 was over 7.00.
As for `CC(=O)n1nc(-c2cccnc2)nc1NCc1ccc(F)cc1` [Cmpd 317, 1-(5-[(4-fluorophenyl)methyl]amino-3-(pyridin-3-yl)-1H-1,2,4-triazol-1-yl)ethan-1-one], the pIC50 was over 7.00.
`COc1ccc(CNc2nc(-c3cccnc3)nn2C(=O)C(C)C)cc1` [Cmpd 318, 1-(5-[(4-methoxyphenyl)methyl]amino-3-(pyridin-3-yl)-1H-1,2,4-triazol-1-yl)-2-methylpropan-1-one]: the pIC50 was over 7.00.
The molecule `COc1ccc(CNc2nc(-c3cccnc3)nn2C(=O)Cc2ccccc2)cc1` [Cmpd 319, 1-(5-[(4-methoxyphenyl)methyl]amino-3-(pyridin-3-yl)-1H-1,2,4-triazol-1-yl)-2-phenylethan-1-one] had a negative-log IC50 (pIC50) of over 7.00.
The molecule `COc1ccc(CNc2nc(-c3cccnc3)nn2C(=O)CC(C)C)cc1` [Cmpd 320, 1-(5-[(4-methoxyphenyl)methyl]amino-3-(pyridin-3-yl)-1H-1,2,4-triazol-1-yl)-3-methylbutan-1-one] showed a pIC50 of over 7.00.
As for `COc1ccc(CNc2nc(-c3cccnc3)nn2C(=O)CCc2ccccc2)cc1` [Cmpd 321, 1-(5-[(4-methoxyphenyl)methyl]amino-3-(pyridin-3-yl)-1H-1,2,4-triazol-1-yl)-3-phenylpropan-1-one], the pIC50 is 6.00 to 7.00.
In turn, `CCCC(=O)n1nc(-c2cccnc2)nc1NCc1ccc(OC)cc1` [Cmpd 322, 1-(5-[(4-methoxyphenyl)methyl]amino-3-(pyridin-3-yl)-1H-1,2,4-triazol-1-yl)butan-1-one] gave a pIC50 of over 7.00.
`COc1ccc(CNc2nc(-c3cccnc3)nn2C(C)=O)cc1` [Cmpd 323, 1-(5-[(4-methoxyphenyl)methyl]amino-3-(pyridin-3-yl)-1H-1,2,4-triazol-1-yl)ethan-1-one] showed a negative logarithm of the IC50 (pIC50) of 6.00 to 7.00.
Still for that read-out and setting: in the case of `CCC(=O)n1nc(-c2cccnc2)nc1NCc1ccc(OC)cc1` [Cmpd 324, 1-(5-[(4-methoxyphenyl)methyl]amino-3-(pyridin-3-yl)-1H-1,2,4-triazol-1-yl)propan-1-one] it was 6.00 to 7.00; in that of `CC(=O)n1nc(-c2cccnc2)nc1NCc1ccc(C)cc1` [Cmpd 325, 1-(5-[(4-methylphenyl)methyl]amino-3-(pyridin-3-yl)-1H-1,2,4-triazol-1-yl)ethan-1-one], over 7.00; in that of `Nc1nc(-c2cccnc2)nn1S(=O)(=O)c1ccccc1` [Cmpd 326, 1-(benzenesulfonyl)-3-(pyridin-3-yl)-1H-1,2,4-triazol-5-amine], under 6.00.
As for `O=S(=O)(c1ccccc1)n1nc(-c2cccnc2)nc1NCc1cccs1` [Cmpd 327, 1-(benzenesulfonyl)-3-(pyridin-3-yl)-N-(thiophen-2-ylmethyl)-1H-1,2,4-triazol-5-amine], the negative logarithm of the IC50 (pIC50) was under 6.00.
On the same count and under the same terms, the figure for `Nc1nc(C(=O)N2CCOCC2)nn1S(=O)(=O)c1ccccc1` [Cmpd 328, 1-(benzenesulfonyl)-3-[(morpholin-4-yl)carbonyl]-1H-1,2,4-triazol-5-amine] is under 6.00; for `CCS(=O)(=O)n1nc(C(=O)N2CCOCC2)nc1N` [Cmpd 329, 1-(ethanesulfonyl)-3-[(morpholin-4-yl)carbonyl]-1H-1,2,4-triazol-5-amine] it is under 6.00; for `CSc1nc(-c2ccco2)nn1C(=O)c1ccccc1Cl` [Cmpd 330, 1-[(2-chlorophenyl)carbonyl]-3-(furan-2-yl)-5-(methylsulfanyl)-1H-1,2,4-triazole] it is over 7.00.
For `O=C(c1ccccc1Cl)n1nc(-c2ccco2)nc1NCc1ccc(F)cc1` [Cmpd 331, 1-[(2-chlorophenyl)carbonyl]-N-[(4-fluorophenyl)methyl]-3-(furan-2-yl)-1H-1,2,4-triazol-5-amine], the negative-log IC50 (pIC50) was over 7.00.
On the same count and under the same terms, in the case of `O=C(c1ccccc1Cl)n1nc(-c2cccnc2)nc1NCc1ccc(F)cc1` [Cmpd 332, 1-[(2-chlorophenyl)carbonyl]-N-[(4-fluorophenyl)methyl]-3-(pyridin-3-yl)-1H-1,2,4-triazol-5-amine] it was over 7.00; in that of `COc1ccccc1C(=O)n1nc(-c2ccccc2)nc1N` [Cmpd 334, 1-[(2-methoxyphenyl)carbonyl]-3-phenyl-1H-1,2,4-triazol-5-amine], under 6.00.
`O=S(=O)(c1ccc(Cl)cc1)n1nc(-c2cccnc2)nc1NCc1cccs1` [Cmpd 336, 1-[(4-chlorobenzene)sulfonyl]-3-(pyridin-3-yl)-N-(thiophen-2-ylmethyl)-1H-1,2,4-triazol-5-amine] had a pIC50 of under 6.00.
`Nc1nc(C(=O)N2CCOCC2)nn1S(=O)(=O)c1ccc(Cl)cc1` [Cmpd 337, 1-[(4-chlorobenzene)sulfonyl]-3-[(morpholin-4-yl)carbonyl]-1H-1,2,4-triazol-5-amine]: the negative-log IC50 (pIC50) was under 6.00.
Still for that read-out and setting: in the case of `O=C(c1ccc(Cl)cc1)n1nc(-c2cccnc2)nc1NCc1ccc(F)cc1` [Cmpd 338, 1-[(4-chlorophenyl)carbonyl]-N-[(4-fluorophenyl)methyl]-3-(pyridin-3-yl)-1H-1,2,4-triazol-5-amine] it was over 7.00; in that of `Cc1ccc(C(=O)n2nc(-c3cccnc3)nc2N)cc1` [Cmpd 339, 1-[(4-methylphenyl)carbonyl]-3-(pyridin-3-yl)-1H-1,2,4-triazol-5-amine], 6.00 to 7.00; in that of `COc1ccc(CNc2nc(-c3cccnc3)nn2C(=O)c2ccco2)cc1` [Cmpd 340, 1-[(furan-2-yl)carbonyl]-N-[(4-methoxyphenyl)methyl]-3-(pyridin-3-yl)-1H-1,2,4-triazol-5-amine], 6.00 to 7.00.
Same read-out and setting: in the case of `CCC(=O)n1nc(-c2ccco2)nc1SC` [Cmpd 341, 1-[3-(furan-2-yl)-5-(methylsulfanyl)-1H-1,2,4-triazol-1-yl]propan-1-one] it was under 6.00; in that of `CCCC(=O)n1nc(-c2cccnc2)nc1NCc1cccs1` [Cmpd 342, 1-[3-(pyridin-3-yl)-5-[(thiophen-2-ylmethyl)amino]-1H-1,2,4-triazol-1-yl]butan-1-one], over 7.00; in that of `CC(=O)n1nc(-c2cccnc2)nc1NCc1cccs1` [Cmpd 343, 1-[3-(pyridin-3-yl)-5-[(thiophen-2-ylmethyl)amino]-1H-1,2,4-triazol-1-yl]ethan-1-one], over 7.00.
`CCC(=O)n1nc(-c2ccc(F)cc2)nc1NCc1ccccc1` [Cmpd 345, 1-[5-(benzylamino)-3-(4-fluorophenyl)-1H-1,2,4-triazol-1-yl]propan-1-one] gave a pIC50 of under 6.00.

Still in this assay, the particulars now being: inhibition of the protease activity of thrombin.
Consider `COc1ccccc1C(=O)c1cn(-c2ccccc2)nc1N(Cc1ccc(F)cc1)C(=O)OC(C)(C)C` [Cmpd 303, tert-butyl N-[(4-fluorophenyl)methyl]-N-4-[(2-methoxyphenyl)carbonyl]-1-phenyl-1H-pyrazol-3-ylcarbamate], for which the pIC50 is under 6.00.
With `COc1ccccc1C(O)c1cc(-c2ccccn2)nn1CCc1ccc(F)cc1` (stereo not shown) [Cmpd 304, 1-[2-(4-fluorophenyl)ethyl]-3-(pyridin-2-yl)-1H-pyrazol-5-yl(2-methoxyphenyl)methanol], the pIC50 was under 6.00.
